In brackets after ≈: the same amount, converted by molar mass. Several values for one entry are separate records, joined by “and”; a condition that tells them apart may be missing. Identical values can stand only once. Entries after “also recorded” stand apart in the source; their conditions may differ. Counter-ions that a name gives are not always drawn. Like-named read-outs stand apart in the source and are kept apart here.
Columns and labels:
S. aureus SrtA = conditions: cited from earlier work
S. aureus ATCC6538p = assay: Antibacterial activity (CLSI broth dilution MIC); type: cell-based; conditions: Staphylococcus aureus, 12 h
Description: (§1) The SrtA inhibitory activity of compounds 1–6, along with that of a known SrtA inhibitor, quercetin [24], was evaluated in vitro using a fluorescence-based enzymatic assay. Recombinant SrtA from S. aureus ATCC6538p was expressed in Escherichia coli and was purified using nickel affinity chromatography. The cleavage of a synthetic peptide substrate by the SrtA enzyme emitted fluorescence, which was then measured. Table 1 presents the half maximal inhibitory concentration (IC50) values calculated from SrtA inhibition rates. […] As SrtA inhibitors act as anti-infective agents by disrupting bacterial pathogenesis without affecting microbial viability, minimum inhibitory concentration (MIC) values were examined to determine their effects on bacterial cell growth.
An assessment of the antibacterial properties of the isolated compounds was conducted in accordance with the protocols provided by the Clinical and Laboratory Standard Institute (CLSI). The S. aureus ATCC6538p strain was cultivated overnight at 37 °C in Mueller–Hinton broth (MHB, BD Difco, Sparks, MD, USA). Subsequently, it was harvested using centrifugation, rinsed with sterilized deionized water, and adjusted to the optical density of a 0.5 McFarland standard (625 nm). Test compounds, initially dissolved in DMSO, were further diluted with MHB to achieve a range of 2-fold serial dilutions from 0.25 to 128 μg/mL (maintaining a final DMSO concentration of 1%). In a 96-well plate, 90 μL of the MHB containing the test compound were combined with 10 μL of broth inoculated with the bacterium (final bacterial concentration: 5 × 10^5 cfu/mL). Following a 12 h incubation at 37 °C, the MICs were determined as the lowest concentration at which bacterial growth was inhibited. Ampicillin (Duchefa, Amsterdam, The Netherlands) served as the reference standard.

[1] = molecular target: T1, Recombinant SrtA from S. aureus ATCC6538p (Staphylococcus aureus, UniProt Q2FV99); assay: SrtA inhibition assay (fluorescence-based enzymatic assay, Abz-LPETG-Dnp substrate); type: biochemical; conditions: for IC50: SrtA IC50, recombinant SrtA from S. aureus ATCC6538p, mean ± SD (n = 3); for SrtA inhibitory activity in words: similar to that of quercetin
T1 construct: no tag is named in the print; made in house; host or cells: Escherichia coli
T1 sequence (Q2FV99 whole entry): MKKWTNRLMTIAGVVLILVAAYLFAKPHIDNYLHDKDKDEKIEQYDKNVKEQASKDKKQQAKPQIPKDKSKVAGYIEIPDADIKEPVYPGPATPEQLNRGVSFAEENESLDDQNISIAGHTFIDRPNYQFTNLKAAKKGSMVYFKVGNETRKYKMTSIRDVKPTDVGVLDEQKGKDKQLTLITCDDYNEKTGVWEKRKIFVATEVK
Description: as §1
To determine the type of inhibition, kinetic studies were performed with halenaquinol at IC50 or twofold IC50 based on a Lineweaver and Burk plot (Figure 2A). Inhibitor constants were obtained by a Dixon plot (Figure 2B). […] Moreover, the binding of halenaquinol to SrtA was reversible because the enzyme activity was recovered by dialysis, excluding the possible existence of a covalent bond between inhibitor and enzyme.
The recombinant SrtA protein from S. aureus ATCC6538p was prepared using a previously described method. Each reaction comprised a 100 μL mixture containing a reaction buffer (50 mM Tris-HCl pH 7.5, 150 mM NaCl, and 5 mM CaCl2), 250 ng of synthetic fluorescent peptide substrate (Abz-LPETG-Dnp), 20 μg of SrtA, and varying concentrations of test samples. DMSO served as the negative control, while quercetin [24] was employed as the positive control. Test sample was dissolved in DMSO and then diluted with reaction buffer to yield a final DMSO concentration of 1%. The reaction mixture was aliquoted into a 96-well plate. Following the addition of SrtA, fluorescence intensity was determined using a microplate reader at excitation and emission wavelengths of 320 nm and 420 nm, respectively. The plate was then incubated for 1 h at 37 °C, and fluorescence intensity was measured. The effect of the inhibitor on SrtA was calculated as a percentage relative to the DMSO-treated control. The percentage of SrtA inhibition was calculated using the following equation: {1 − (Difference value of the test compound/Difference value of a negative control)} × 100. A 12-point, twofold serial dilution dose–response assay was performed independently in triplicate. The resultant dose–response concentration range was 128 to 0.1 μg/mL of inhibitor. Data were scaled to internal controls, and a four-parameter logistic model (SigmaPlot ver. 10.0) was used to fit the measured data and determine the IC50 values. In order to investigate the inhibition type and inhibition constant (Ki) values of halenaquinol, SrtA enzyme activity was monitored in various concentrations of substrate in the absence and presence of halenaquinol. All reactions were repeated three times and enzyme kinetics were evaluated using Lineweaver–Burk and Dixon plots.

[2] = test system: SpA anchoring on cell wall surface of S. aureus Newman; assay: SpA cell wall surface anchoring after trypsin removal, Western blot with anti-SpA antibody; type: cell-based, Staphylococcus aureus; conditions: trypsin-treated wild type, 1 h
Description: The anchoring of SpA on the cell-wall surface in S. aureus was measured using Western blot analysis with monoclonal anti-SpA antibody (Figure 4). […] Then, trypsin-treated wild-type S. aureus cells were incubated in medium containing an SrtA inhibitor, halenaquinol, over a concentration range of 1-to-4 times the IC50 values.
The effect of the test compound on the in vivo inhibition of S. aureus SrtA was investigated by quantifying the abundance of SpA, catalyzed by the transpeptidation of SrtA on the bacterial surface [26]. […] For this study, S. aureus Newman (wild-type), a human clinical isolate, and its isogenic srtA-deletion mutant (ΔsrtA) were utilized [6, 37]. These strains were inoculated into 5 mL of TSB and incubated for 16 h at 37 °C with shaking. Cultures were then diluted 1:100 into TSB and were grown until the OD600 reached approximately 0.5. Cells from a 10 mL culture were harvested, rinsed with phosphate-buffered saline (PBS, Sigma–Aldrich), suspended in 5 mL of PBS containing 0.2 mg/mL trypsin (Sigma-Aldrich), incubated at 37 °C with shaking for 1 h, and washed with PBS. Subsequently, the cells were incubated in 5 mL of TSB containing 1 mM phenylmethylsulfonyl fluoride (PMSF), with the test compound at 37 °C with shaking for 1 h. Negative control groups were treated with DMSO solvent instead of the test compound. Then, aliquots (1 mL) were removed, and the cells were harvested and stored at −80 °C.
S. aureus cells, prepared as described above, were suspended in 1 mL of ice-cold PBS containing 1 mM PMSF. A 1% (w/v) solution of Sulfo-NHS-SS-Biotin was prepared, and it was added (100 μL) to 1 mL of cells, resulting in a final concentration of 1.5 mM Sulfo-NHS-SS-Biotin. The cells were then incubated with gentle shaking at 80 rpm for 2 h on ice and were collected using centrifugation (4000× g, 5 min, 4 °C). To halt the biotinylation reaction, cells were washed three times with 1 mL of ice-cold PBS containing 500 mM glycine. Next, the cells were suspended in 500 μL of lysis buffer containing 100 μg/mL lysostaphin (Sigma–Aldrich) and 2 mM PMSF. […]

[3] = test system: SpA surface display on S. aureus Newman; assay: Immunofluorescence microscopy of SpA surface display; type: cell-based, Staphylococcus aureus; conditions: 8 × IC50 (111.52 μM)
Description: Figure 5 Fluorescence microscopy images of SpA surface display. […] BF identifies the bright-field microscopy view of fluorescence microscopy images. Scale bar, […].
The surface display of SpA was visualized following established procedures. A solution of 0.01% poly-L-lysine (Sigma-Aldrich) was added to each well of an 8-well glass chamber slide (SPL) and incubated at 25 °C for 5 min to coat the slide. After washing each well with distilled water and ensuring complete drying, 1 mL of cells, prepared as described above for the re-expression of the cell surface protein, was suspended in PBS containing 0.05% Tween 80 (PBST) and was thoroughly vortexed. A total of 250 μL of suspension was removed and incubated at 25 °C for 20 min with 250 μL of PBS (2.4% paraformaldehyde, 0.006% glutaraldehyde, and 0.05% Tween 80). The fixed cells were washed twice with PBST, and 150 μL of cells were added to the coated slide and incubated at 25 °C for 5 min. […] After washing seven times, anti-fade fluorescence mounting medium (Abcam, Cambridge, UK) was added. […] Images were captured using AiryScan fluorescence detectors and a transmitted light detector (T-PMT) under 10× scan zoom, bidirectional scan, 4× averaging. All the images were analyzed in ZEN 2.1 software (Carl Zeiss).

[4] = test system: srtA and spa mRNA expression in S. aureus Newman; assay: Semiquantitative reverse transcription PCR of srtA and spa mRNA; type: cell-based, Staphylococcus aureus
Description: To ascertain whether halenaquinol inhibits the transcription of srtA or blocks its function at an enzyme level without affecting the expression of the srtA gene, the mRNA expression level of srtA in response to various concentrations and exposure times of halenaquinol was initially explored using semi-quantitative reverse transcription PCR (RT-PCR). Total RNA isolated from S. aureus Newman was transcribed into cDNA, and it was used as a template to amplify the target genes. A time-course analysis assessed the impact of halenaquinol on srtA expression at different intervals from 0 to 60 min. […] Furthermore, the expression level of srtA was analyzed after 40 min of incubation at various concentrations of halenaquinol.
Figure 3 Effect of SrtA inhibitors on srtA and spa mRNA expression. S. aureus Newman cells were incubated in the presence of halenaquinol and quercetin. mRNA expression levels of cells were examined using semiquantitative RT-PCR. (A) The time courses of mRNA expression of gyrB and srtA were monitored. Total RNA was isolated from cells grown in medium containing 0.2% dimethyl sulfoxide (DMSO, negative control), halenaquinol or quercetin (positive control). (B) Cells were grown in medium containing the indicated concentrations of halenaquinol or quercetin. The gyrB gene was used as a loading control.
The S. aureus Newman strain was inoculated into 5 mL of trypticase soy broth (TSB) and incubated overnight at 37 °C with shaking. Cultures were diluted 1:100 into TSB and grown until the OD600 reached approximately 0.3. Cultures (5 mL) were aliquoted, and the test compound was added with less than 0.2% DMSO. The negative control group was treated with DMSO only. Cultures were then incubated at 37 °C with shaking and harvested at specific incubation times. Then, 1 mL of each culture was centrifuged, and the pellet was stored at −80 °C. RNA was isolated using the easy-BLUE total RNA extraction kit (iNtRON Biotechnology, Boston, MA, USA). […]

S. mutans SrtA = conditions: cited from earlier work

COc1ccc(/C(C#N)=C/c2cc(OC)ccc2OC)cc1 [(Z)-3-(2,5-dimethoxyphenyl)-2-(4-methoxyphenyl) acrylonitrile]
IC50 (S. aureus SrtA; SrtA inhibition): 9.2 µM | manner of binding the enzyme (S. aureus SrtA): reversible | type of inhibition (S. aureus SrtA): competitive inhibitor

CC1(C)S[C@@H]2[C@H](NC(=O)[C@H](N)c3ccccc3)C(=O)N2[C@H]1C(=O)O [Ampicillin, reference compound]
MIC (S. aureus ATCC6538p; ATCC6538P): 0.4 µM and 0.1 µg/mL

C[C@@]12CCC(=O)c3coc(c31)C(=O)c1cc3c(O)ccc(OS(=O)(=O)O)c3cc12 [Compound 1, halenaquinol sulfate]
MIC (S. aureus ATCC6538p; ATCC6538P): 309 µM and > 128 µg/mL | IC50 [1]: 103 µM | SrtA inhibitory activity in words [1]: moderate inhibitory activities

C[C@@]12CCC(=O)c3coc(c31)C(=O)c1cc3c(O)ccc(O)c3cc12 [Compound 2, halenaquinol]
anchoring of SpA on cell wall surface ([2]; 1 × IC50 (13.94 μM)): no significant difference from the wild type | reduction of SpA anchoring ([2]; 2 × IC50 (27.88 μM)): approximately 53% | reduction of SpA anchoring ([2]; 4 × IC50 (55.76 μM)): ~85% | MIC (S. aureus ATCC6538p; ATCC6538P): 383 µM and > 128 µg/mL | Ki [1]: 9.55 µM | type of inhibition ([1]; Lineweaver-Burk plot at IC50 or twofold IC50): mixed inhibitor | IC50 [1]: 13.9 µM | reversibility of binding to SrtA ([1]; enzyme activity recovered by dialysis): reversible | SrtA inhibitory potency relative to halenaquinol sulfate ([1]; ratio of IC50 values): approximately 9.2 times | SpA surface display / inhibition of SpA anchoring [3]: comparable to those for an srtA-deletion mutant; also recorded: significantly reduced | inhibition of the transcription of srtA and spA ([4]; S. aureus Newman, semi-quantitative RT-PCR): does not inhibit | PCR band intensity representing mRNA expression of srtA and spa ([4]; after 40 min of incubation, increasing concentrations): slightly increased | PCR band intensity representing srtA mRNA expression ([4]; time course 0 to 60 min, gyrB consistent): increased over time

C[C@]12CCCc3coc(c31)C(=O)c1cc3c(cc12)C(O)CCC3O (stereo partly drawn) [Compound 3, 13,14,15,16-tetrahydroxestoquinol]
MIC (S. aureus ATCC6538p; ATCC6538P): 395 µM and > 128 µg/mL | IC50 [1]: 51.8 µM

C[C@@]12CCCc3coc(c31)C(=O)c1cc3c(O)ccc(OS(=O)(=O)O)c3cc12 [Compound 4, xestoquinol sulfate]
MIC (S. aureus ATCC6538p; ATCC6538P): 320 µM and > 128 µg/mL | IC50 [1]: > 320 µM

C[C@]12CCCc3coc(c31)C(=O)c1cc3c(cc12)C(=O)C=C(NCCS(=O)(=O)O)C3=O [Compound 5, secoadociaquinone B]
MIC (S. aureus ATCC6538p; ATCC6538P): 290 µM and > 128 µg/mL | IC50 [1]: 131 µM | SrtA inhibitory activity in words [1]: moderate inhibitory activities

C[C@H]1OC(=O)c2cc3c(cc21)[C@@]1(C)CC[C@@H](O)c2coc(c21)C3=O [Compound 6, xestolactone A]
MIC (S. aureus ATCC6538p; ATCC6538P): 395 µM and > 128 µg/mL | IC50 [1]: 47.5 µM

O=c1c(O)c(-c2ccc(O)c(O)c2)oc2cc(O)cc(O)c12 [Quercetin, quercetin, reference compound]
MIC (S. aureus ATCC6538p; S. aureus ATCC6538p growth, 37 °C, read-out: MIC): > 424 µM and > 128 µg/mL | IC50 [1]: 158 µM

O=C(c1nc(-c2c[nH]c3cc(Br)ccc23)c[nH]1)c1c[nH]c2cc(O)ccc12 [bromotopsentin]
IC50 (S. aureus SrtA; S. aureus SrtA): 39.6 µM

O=S(=O)(O)c1ccccc1-c1nn2c(-c3ccncc3)nnc2s1 [compound 6e, 3-(4-pyridinyl)-6-(2-sodiumsulfonatephenyl)[1,2,4]triazolo [3,4-b][1,3,4]thiadiazole]
IC50 (S. aureus SrtA; S. aureus SrtA): 9.3 µM

COc1cc2ccnc3c2c(c1O)N(C)C=C3 [isoaaptamine]
IC50 (S. aureus SrtA; S. aureus SrtA): 16.2 µM

O=c1c(O)c(-c2cc(O)c(O)c(O)c2)oc2cc(O)cc(O)c12 [myricetin]
IC50 (S. mutans SrtA): 15.48 µg/mL (≈ 48.6 µM)

O=C(NCCSSCCNC(=O)/C(Cc1ccc(O)c(Br)c1)=N/O)/C(Cc1ccc(O)c(Br)c1)=N/O [psammaplin A]
IC50 (S. aureus SrtA; S. aureus SrtA): 47.4 µM
